System: CD20 on freshly isolated B cells
Assay: CD20/CD21 MFI ratio on freshly isolated B cells of atorvastatin-treated patients
Type: in vivo, human
Settings: day 3 vs day 0 after single dose 80 mg atorvastatin; CD20 detected with the named mAb
Text: CD21 is a protein expressed by B cells. Its expression has been shown unaffected upon cholesterol depletion of a B cell line (Daudi) and for freshly isolated B cell enriched cell population of two independent donors (FIG. 26). Therefore, CD21 mAb binding is considered as an indicator for the amount of B cells present per staining. The MFI of CD20 mAb and CD21 mAb binding was identified by gating on viable cells in the lymphogate (FSC vs SSC), and subsequently on CD21+ cells when analyzing the MFI for the CD20 mAb. In order to be able to correlate the CD20 expression measured in between days CD20 mAb binding was quantitated relative to CD21 mAb binding within the same staining by calculating the ratio of MFI of CD20/CD21 mAb.
To determine CD20 and CD21 expression on B cells of hypercholesterolemic patients treated with atorvastatin PBMC were isolated out of whole blood drawn on day 0 (pre-treatment) and day 3 after treatment (as described in Example 7). Freshly isolated B cells were stained with different FITC-conjugated CD20 mAbs 2F2, 11B8, B1 (GlaxoSmithKline, Stevenage, United Kingdom) and PE-conjugated CD21 mAb (B-Ly4, BD Pharmingen, Franklin Lakes, N.J.) by 30 minutes incubation at room temperature in the dark. Cells were washed and mAb binding intensity (MFI) was analysed using a FACS Calibur (Becton Dickinson, Breda, The Netherlands).

## 2F2: human anti-CD20 mAb, VH SEQ ID NO:1, VL SEQ ID NO:2, disclosed in WO 2004/035607
  average decrease in CD20/CD21 MFI ratio: 18%

Source: patent publication US20110091473A1, “NOVEL ANTIBODY THERAPIES” (GENMAB A/S, priority 2007, published 2011)
